Source: article PMC4376724, “Differential Phenotypic and Functional Profiles of TcCA-2 -Specific Cytotoxic CD8^+ T Cells in the Asymptomatic versus Cardiac Phase in Chagasic Patients” (PLoS ONE, 2015)

Test system: PBMC from HLA-A*02:01 Chagas disease patients and healthy donors
Assay: Cytokine secretion test (Bio-Plex multiplex immunoassay) in PBMC supernatants
Format: cell-based, human
Conditions: 1 μM peptide, 30 h, non-peptide control subtracted
Experimental: For the screening of the recognition of TcCA-2 epitopes by Chagas disease patients, 10 HLA-A*02:01 adult patients in the asymptomatic phase of the disease (IND) were enrolled. For cytotoxicity, functional activity determinations and phenotypic characterization another group of 19 HLA-A*02:01 adults Chagas disease patients and 9 healthy donors were analyzed. These patients were at the chronic stage of the disease and were considered to be at the asymptomatic phase (IND, n = 8) if there was no evidence of having cardiac or gastrointestinal disorders. Chronic Chagas cardiomyopathy patients (CCC, n = 11) were stratified into G1 to G3 stages following Kuschnir classification according to clinical criteria and radiological, electrocardiographic and echocardiography analyses. The number of patients was the one recommended by the Hospital Ethical Committee. […] The patients were enrolled in both studies (functional and phenotypic characterization, IND n = 6 and CCC n = 7) when the available number of purified PBMC (limited by the cellular number isolated from each subject) was enough for both analyses. Another four CCC patients had to be enrolled to perform the phenotypic analysis in order to reach statistical significance.
Cytokine secretion (IL-4, IL-10, IL-6, IFN-γ, TNF-α) was determined in the supernatants of PBMC from Chagas disease patients and healthy donors, after in vitro stimulation with 1 μM of each peptide for 30 h at 37°C in RPMI supplemented with 10% iFBS as explained before. The secretion profile was determined by using a bead-based multiplex immunoassay system (Bio-Plex, Bio-Rad), following the manufacturer's instructions. The response was considered positive if an increase in the secretion of cytokines was at least three folds higher than the secretion by un-stimulated cells (basal secretion level) and at least, 4 pg/mL for IL-4, 2 pg/mL for IL-10, 15 pg/mL for IL-6 and 5 pg/mL for IFN-γ and TNF-α. The positive control consisted of 50 ng/mL Phorbol 12 myristate 13-acetate (PMA) and 500 ng/mL ionomycin (Sigma). Cytokine levels were quantified in each sample by using the Bio-Plex Manager software 4.1 (Bio-Rad).
Functional analysis of the epitope-specific CD8^+ T cells was carried out by the determination of the secretion profile of IFN-γ, TNF-α, IL-4, IL10 and IL-6 cytokines. […] CD8^+ T cells from 2 out of 11 patients responded to stimulation with peptide TcCA-2_273-281 by secreting IL-6. […] There was no secretion of IL-4 and IL-10 in PBMC after stimulation with any one of the four TcCA-2 peptides (data not shown). IFN-γ, TNF-α and IL6 cytokines secretion levels were higher in patients at the asymptomatic phase of the disease than in Chagas patients with associated cardiomyopathy.

In the case of ALQVTNHRYL [TcCA-2_657-666], the IFNγ (PBMC of patient CCC I 770) is reported as 0 pg/mL, the IL6 (PBMC of patient CCC I 770) is reported as 1 pg/mL and the TNFα (PBMC of patient CCC I 770) is reported as -6 pg/mL. The IFNγ (PBMC of patient CCC I 861) was 0 pg/mL, the IL6 (PBMC of patient CCC I 861) was -4 pg/mL and the TNFα (PBMC of patient CCC I 861) was -2 pg/mL. For the same sequence, the IFNγ (PBMC of patient CCC I 884) was 0 pg/mL, the IL6 (PBMC of patient CCC I 884) was 0 pg/mL and the TNFα (PBMC of patient CCC I 884) was 0 pg/mL. The IFNγ (PBMC of patient CCC III 509) was 0 pg/mL, the IL6 (PBMC of patient CCC III 509) was -4 pg/mL and the TNFα (PBMC of patient CCC III 509) was -5 pg/mL. The IFNγ (PBMC of patient IND 365) was 2 pg/mL, the IL6 (PBMC of patient IND 365) was 10 pg/mL and the TNFα (PBMC of patient IND 365) was 14 pg/mL. The IFNγ (PBMC of patient IND 388) was 2 pg/mL, the IL6 (PBMC of patient IND 388) was 2 pg/mL and the TNFα (PBMC of patient IND 388) was -5 pg/mL. The IFNγ (PBMC of patient IND 510) was 0 pg/mL, the IL6 (PBMC of patient IND 510) was -3 pg/mL and the TNFα (PBMC of patient IND 510) was 1 pg/mL. The IFNγ (PBMC of patient IND 535) was 0 pg/mL, the IL6 (PBMC of patient IND 535) was -5 pg/mL and the TNFα (PBMC of patient IND 535) was -2 pg/mL. It also gave an IFNγ (PBMC of patient IND 571) of 1 pg/mL, an IL6 (PBMC of patient IND 571) of 0 pg/mL and a TNFα (PBMC of patient IND 571) of 0 pg/mL. The IFNγ (PBMC of patient IND 917) was -1 pg/mL, the IL6 (PBMC of patient IND 917) was -17 pg/mL and the TNFα (PBMC of patient IND 917) was -17 pg/mL. The IFNγ (PBMC of subject HD 001) was -2 pg/mL, the IL6 (PBMC of subject HD 001) was 1 pg/mL and the TNFα (PBMC of subject HD 001) was -6 pg/mL. For the same sequence, the IFNγ (PBMC of subject HD 004) was 4 pg/mL, the IL6 (PBMC of subject HD 004) was -12 pg/mL and the TNFα (PBMC of subject HD 004) was -1 pg/mL. It also gave an IFNγ (PBMC of subject HD 005) of 0 pg/mL, an IL6 (PBMC of subject HD 005) of -58 pg/mL and a TNFα (PBMC of subject HD 005) of -4 pg/mL. It also gave an IFNγ (PBMC of subject HD 006) of 3 pg/mL, an IL6 (PBMC of subject HD 006) of -5 pg/mL and a TNFα (PBMC of subject HD 006) of 1 pg/mL. It also gave an IFNγ (PBMC of subject HD 008) of -3 pg/mL, an IL6 (PBMC of subject HD 008) of 3 pg/mL and a TNFα (PBMC of subject HD 008) of -21 pg/mL. It also gave an IFNγ (PBMC of subject HD 011) of 0 pg/mL, an IL6 (PBMC of subject HD 011) of -4 pg/mL and a TNFα (PBMC of subject HD 011) of 0 pg/mL. It also gave an IFNγ (PBMC of subject HD 017) of 0 pg/mL, an IL6 (PBMC of subject HD 017) of 0 pg/mL and a TNFα (PBMC of subject HD 017) of 0 pg/mL. The IFNγ (PBMC of subject HD 340) was 1 pg/mL, the IL6 (PBMC of subject HD 340) was 22 pg/mL and the TNFα (PBMC of subject HD 340) was 8 pg/mL. The IFNγ (PBMC of subject HD 664) was -3 pg/mL, the IL6 (PBMC of subject HD 664) was 0 pg/mL and the TNFα (PBMC of subject HD 664) was 0 pg/mL.
